{
  "source": "patent US12421271B2",
  "about": "“Solid forms of (2S,3S,4S,5R,6S)-3,4,5-trihydroxy-6-(((4AR, 10AR)-7-hydroxy-1-propyl-1,2,3,4,4A,5,10,10A-octahydrobenzo[g]quinolin-6-yl)oxy)tetrahydro-2H-pyran-2-carboxylic acid” (H. Lundbeck A/S, priority 2019, dated 2025)",
  "key": {"[1]": {"experiment": "PK experiments in Wistar rats, plasma compound (I) after oral dosing of prodrugs", "type": "in vivo, rat", "conditions": "FIG. 1, doses equal to 287 μg/kg of compound (I)", "protocol": "Plasma was placed on water-ice following collection. Final storage at approximately −70° C.\nMobile phase B: Acetonitrile. […] Flow rate 0.5 mL/min.\nThe rats had unrestricted access to the diet.\nMobile phase B: Acetonitrile+0.2% formic acid. […] Flow rate 0.3 mL/min.\nDosing and blood sampling for compound (Ic): Han Wistar rats were supplied by Envigo, UK. […] The rats received a standard laboratory diet Teklad 2014C. The rats had unrestricted access to the diet."}, "[2]": {"biological_target": "T1, human 5-HT2B receptor (Homo sapiens, UniProt P41595)", "T1 construct": "host or cells: CHO", "T1 sequence (P41595 whole entry)": "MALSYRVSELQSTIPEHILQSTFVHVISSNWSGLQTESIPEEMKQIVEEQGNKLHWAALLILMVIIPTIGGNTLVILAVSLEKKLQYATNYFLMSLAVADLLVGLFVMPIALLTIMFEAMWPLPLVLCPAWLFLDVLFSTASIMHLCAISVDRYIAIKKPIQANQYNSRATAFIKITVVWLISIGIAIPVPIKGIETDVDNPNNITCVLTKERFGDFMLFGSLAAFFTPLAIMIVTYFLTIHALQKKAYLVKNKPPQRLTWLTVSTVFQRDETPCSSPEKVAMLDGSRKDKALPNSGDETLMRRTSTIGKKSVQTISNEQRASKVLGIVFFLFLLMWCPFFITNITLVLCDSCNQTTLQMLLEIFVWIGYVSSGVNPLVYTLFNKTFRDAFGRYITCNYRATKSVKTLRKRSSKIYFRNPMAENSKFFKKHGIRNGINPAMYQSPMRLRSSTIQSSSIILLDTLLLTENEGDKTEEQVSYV", "experiment": "5-HT2B agonist activity assay, IP1 production (HTRF) in CHO cells", "type": "cell-based", "protocol": "Evaluation of the agonist activity of compounds (I), (Ia) and (Ib) at the human 5-HT2B receptor was performed by Eurofins/Cerep (France) measuring the compound effects on inositol monophosphate (IP1) production using the HTRF detection method. Briefly, the human 5-HT2B receptor was expressed in transfected CHO cells. The cells were suspended in a buffer containing 10 mM Hepes/NaOH (pH 7.4), 4.2 mM KCl, 146 mM NaCl, 1 mM CaCl2, 0.5 mM MgCl2, 5.5 mM glucose and 50 mM LiCl, then distributed in microplates at a density of 4100 cells/well and incubated for 30 minutes at 37° C. in the presence of buffer (basal control), test compound or reference agonist. For stimulated control measurement, separate assay wells contained 1 μM 5-HT. Following incubation, the cells were lysed and the fluorescence acceptor (fluorophen D2-labeled IP1) and fluorescence donor (anti-IP1 antibody labeled with europium cryptate) were added. After 60 minutes at room temperature, the fluorescence transfer was measured at lambda(Ex) 337 nm and lambda(Em) 620 and 665 nm using a microplate reader (Rubystar, BMG). The IP1 concentration was determined by dividing the signal measured at 665 nm by that measured at 620 nm (ratio). The results were expressed as a percent of the control response to 1 μM 5-HT. […]"}, "[3]": {"conditions": "Liu et al., Bioorganic Med. Chem. (2008); rats; cited from earlier work"}, "[4]": {"test_system": "rat locomotor activity", "experiment": "Rat locomotor activity (hyperactivity) assay, open field, with PK/PD", "type": "in vivo", "protocol": "Mass spectrometer (UPCLC-MS/MS) Waters Acquity I-Class-Waters Xevo TQ-S. Analytical column Acquity HSS T3 C18 50×2.1 mm, 1.8 μm. Mobile phase A: 10 mM NH4—Formate 0.2% formic acid:Acetonitril (95:5). Mobile phase B: 10 mM NH4—Formate 0.2% formic acid:Acetonitril (5:95). Gradient run from 95/5% to 5/95% in 2.40 minutes. Flow rate 0.3 mL/min. MRM detection of test items and the added analytical standards.\nAnimals for the study were as described in Example 10. Additionally, rats were administered a single dose of apomorphine subcutaneously.\nIn total, 206 male CD rats (Charles River, Germany) weighing 200-250 grams (165-190 grams upon arrival) were used in the study. Animals were housed at a standard temperature (22±1° C.) and in a light-controlled environment (lights on from 7 am to […]) with ad libitum access to food and water. The experiment described below was performed in accordance with the standard operating procedures of Charles River Discovery Research Services Finland Ltd. and in accordance with the national Animal Experiment Board of Finland (Eläinkoelautakunta, ELLA) authority on animal testing.\nThe test device is a square Plexiglass-arena (measuring 40×40×40 cm), in which the movement paths of the rats are recorded by an activity monitor (Med. Associates Inc.). Before the test period is initiated, rats are habituated to their test cage for 60 minutes. Upon completion of habituation, animals were treated with either compound or vehicle and placed back into the open field apparatus. The main test parameter measured is ambulatory distance (recorded in 5-minute segments). Overall time of measurement after receiving initial treatment was 360 minutes. Total follow up period in the study was 420 min, including 60 min of habituation."}, "[5]": {"experiment": "Conversion of (Id) to (I) in fresh human blood", "type": "in vitro ADME", "conditions": "1 μg/mL, 37° C., 0-60 minutes", "protocol": "(§1) Conversion of (Id) in human blood (average of 3 donors) and rat blood (average of 45 donors) to (I) was shown in fresh blood at 37° C. spiked with 1 μg/mL of (Id). (I) was measured at 0, 5, 15, 30 and 60 minutes in isolated plasma. Analysis method and Instrumentation as described in Examples 9 and 10 below in the section “Instrumentation used for analysis of compound (l) from dosing of compounds (Ic) and (Id).”"}, "[6]": {"experiment": "pKa values / major species of ionization", "type": "physicochemical"}, "[7]": {"experiment": "Conversion of (Id) to (I) in fresh rat blood", "type": "in vitro ADME", "conditions": "1 μg/mL, 37° C., 0-60 minutes", "protocol": "as §1"}, "[8]": {"experiment": "Oral dosing of compound (Id) in minipigs", "type": "in vivo, minipig"}, "[9]": {"test_system": "rat hepatocytes", "experiment": "Conversion of compound (Id) to compound (I) in rat hepatocytes", "type": "in vitro ADME", "conditions": "1 μg/mL, 37° C., 0.25-60 minutes", "protocol": "(§2) The cell concentration at incubation was 1×10^6 viable cells/mL. The incubations were performed in glass tubes at 37° C. with a total incubation volume of 3.5 mL and with duplicate incubations for each test item. The 3.5 mL of hepatocyte suspension was equilibrated for 10 minutes in a water bath set to 37° C. where after the incubations were initiated by adding 3.5 μL of a stock solution of the test item in DMSO (Dimethyl sulfoxide) and gently inverting the tubes. The final solvent concentration in the incubations was 0.1% DMSO. Samples of 600 μL were withdrawn from the incubations at the pre-determined time points of 0.25, 5, 15, 30 and 60 minutes after ensuring homogeneity of hepatocyte suspensions. The withdrawn volume was added to 1 mL Nunc cryo tubes on wet ice containing 60 μL of ice-cold ascorbic acid (100 mg/mL) and 30 μL of ice cold 100 mM saccharic acid 1,4-lactone in 0.5 M citric acid. The tubes were mixed and 35 μL of a solution of ice cold 20% formic acid was added. The tubes were mixed thoroughly and stored at −80° C. awaiting analysis."}, "[10]": {"test_system": "human hepatocytes", "experiment": "Conversion of compound (Id) to compound (I) in human hepatocytes", "type": "in vitro ADME", "conditions": "1 μg/mL, 37° C., 0.25-60 minutes", "protocol": "as §2"}, "[11]": {"conditions": "man, after oral dosing; cited from earlier work"}},
  "note": "Like-named read-outs stand apart in the source and are kept apart here.",
  "data": [
    {"molecule": "CCCN1CCC[C@@H]2CC3=C(CCCC3=O)C[C@H]21", "note": "[(Ia)]", "values": [
      {"measurement": "Plasma profile of compound (I) after oral dosing, in words", "setting": "[1]", "value": "early and high peak concentrations"},
      {"measurement": "5-HT2B agonist effect at single concentration", "setting": "[2]; @ 30 μM, percent of control response to 1 μM 5-HT", "value": 58, "unit": "% @ 30 μM"}
    ]},
    {"molecule": "CCCN1CCC[C@@H]2Cc3c(ccc(OC(=O)C(C)(C)C)c3OC(=O)C(C)(C)C)C[C@H]21", "note": "[(Ic)]", "values": [
      {"measurement": "Plasma profile of compound (I) after oral dosing, in words", "setting": "[1]", "value": "extremely low"},
      {"measurement": "5-HT2B agonist effect at single concentration", "setting": "[2]; @ 10 μM", "value": "−5", "unit": "% @ 10 μM"}
    ]},
    {"molecule": "CCCN1CCC[C@@H]2Cc3c(ccc(O)c3O)C[C@H]21", "note": "[Compound (I), (4aR,10aR)-1-Propyl-1,2,3,4,4a,5,10,10a-octahydro-benzo[g]quinoline-6,7-diol]", "values": [
      {"measurement": "Oral bioavailability, in words", "setting": "[3]", "value": "low oral bioavailability"}
    ]},
    {"molecule": "CCCN1CCC[C@@H]2Cc3c(ccc(O)c3O[C@@H]3O[C@H](C(=O)O)[C@@H](O)[C@H](O)[C@H]3O)C[C@H]21", "note": "[Compound (Id), (2S,3S,4S,5R,6S)-3,4,5-trihydroxy-6-(((4aR,10aR)-7-hydroxy-1-propyl-1,2,3,4,4a,5,10,10a-octahydrobenzo[g]quinolin-6-yl)oxy)tetrahydro-2H-pyran-2-carboxylic acid]", "values": [
      {"measurement": "Relationship of behavioral effect and plasma concentration", "setting": "[4]; (Id) 100 μg/kg p.o. (FIG. 4), apomorphine 3 mg/kg s.c. (FIG. 5)", "value": "correlate with the plasma concentrations of compound (I)"},
      {"measurement": "Duration of locomotor effect, in words", "setting": "[4]; (Id) 10 to 300 μg/kg p.o., recording to the 415-minute time point", "value": "lasting until the end of recording"},
      {"measurement": "Total distance travelled, in words", "setting": "[4]; FIG. 3, (Id) 10, 30, 100 or 300 μg/kg p.o., apomorphine 3 mg/kg s.c., pramipexole 0.3 mg/kg s.c., vs vehicle", "value": "significantly increased activity"},
      {"measurement": "Conversion to compound (I)", "setting": "[5]", "value": "time dependent conversion"},
      {"measurement": "pKa", "setting": "[6]; anion / dianion boundary pH, read-out: pKa (third), boundary between major species of ionization", "value": 10.1},
      {"measurement": "pKa", "setting": "[6]; cation / zwitterion boundary pH, read-out: pKa (first), boundary between major species of ionization", "value": 2.8},
      {"measurement": "pKa", "setting": "[6]; zwitterion / anion boundary pH, read-out: pKa (second), boundary between major species of ionization", "value": 8.8},
      {"measurement": "Conversion to compound (I)", "setting": "[7]", "value": "time dependent conversion"},
      {"measurement": "In vivo conversion to compound (I)", "setting": "[8]", "value": "In vivo conversion of compound (Id) to compound (I) has also been observed"},
      {"measurement": "Plasma profile of compound (I) after oral dosing, in words", "setting": "[1]", "value": "slower absorption rate avoiding rapid peak concentrations accompanied by a sustained exposure"},
      {"measurement": "Conversion to compound (I)", "setting": "[9]", "value": "time dependent conversion"},
      {"measurement": "Conversion to compound (I)", "setting": "[10]", "value": "time dependent conversion"}
    ]},
    {"molecule": "CCCc1cc2c(s1)CN[C@@H]1CCc3cc(OC(C)=O)c(OC(C)=O)cc3[C@@H]21", "note": "[adrogolide]", "values": [
      {"measurement": "Oral bioavailability", "setting": "[11]", "value": "~4", "unit": "%"}
    ]}
  ]
}
